# From patent US8518947B2, “(Heterocycle/tetrahydropyridine)-(piperazinyl)-1-alcanone and (heterocycle/dihydropyrrolidine)-(piperazinyl)-1-alcanone derivatives, and use thereof as p75 inhibitors” (Sanofi, priority 2009, dated 2013)
# Experiments:
# [1] = tested on: strains of human neuroblastomas SH-SY-5Y and SK-N-BE Bep 75; assay: Measurement of the apoptosis (cell death detection ELISA, cytoplasmic histones associated with DNA fragments); type: cell-based; details: SH-SY-5Y (48 hours) and SK-N-BE Bep 75 (24 hours), NGF 10 ng/ml or beta-amyloid peptide 10 μM, cell line not stated, read-out: IC50 in the apoptosis test
# Protocol: The SH-SY-5Y strain (human neuroblastoma) is conventionally cultured in a DMEM culture medium (Dulbecco's Modified Eagle's Medium) (Gibco BRL, France) containing FCS (5%) (fetal calf serum) (Boehringer Mannheim, Germany), sodium pyruvate (1 mM) and glutamine (4 mM) in collagen-covered culture flasks (Becton Dickinson, France).
# (§1) The SK-N-BE parent strain (human neuroblastoma) and the clone Bep 75, stably expressing the complete form of the human p75^NTR receptor (SK-N-BE Bep 75) are conventionally cultured in an RPMI culture medium containing FCS (5%), sodium pyruvate (1 mM) and glutamine (4 mM). For the SK-N-BE Bep 75 cells, hygromycin (200 μl/20 ml of medium) is added as selection agent.
# Measurement of the Apoptosis
# The cells (strains of human neuroblastomas SH-SY-5Y and SK-N-BE Bep 75) are placed in Petri dishes 35 mm in diameter (Biocoat collagenl, (10^5 cells/well)) in a suitable culture medium containing 5% FCS, for 24 hours. The culture medium is then removed, the cells are rinsed with PBS (Dulbecco's Phosphate-buffered saline), and then either fresh medium containing 5% FCS, or medium containing NGF (at a concentration of 10 ng/ml), or beta-amyloid peptide (A1β1-40) (at a concentration of 10 μM) is then added, in the presence or absence of the compounds according to the invention. The apoptosis levels are measured 48 hours after the treatments in the case of the strain SH-SY-5Y, and 24 hours later in the case of the strain SK-N-BE Bep 75, by quantifying the cytoplasmic histones associated with the DNA fragments (cell death detection ELISA, Boehringer Mannheim, Germany). The apoptosis levels are expressed as the amount of oligonucleosomes/10^5 cells. Each value corresponds to the average of 9 experimental points distributed over 3 independent experiments.
# p75^NTR receptor = biological target: T1, p75^NTR receptor (Homo sapiens, UniProt P08138); assay: Study of the dimerization of the p75NTR receptor independently of its ligand (binding of soluble p75NTR-alkaline phosphatase to SK-N-BE Bep 75 cells); details: 1 hour preincubation at 37° C., soluble p75NTR-alkaline phosphatase 10 nM
# T1 construct: the clone Bep 75, stably expressing the complete form of the human p75^NTR receptor; expressed in transfected cells; host or cells: SK-N-BE Bep 75 (human neuroblastoma clone stably expressing the receptor); the soluble p75NTR-AP came from the supernatant of transiently transfected HEK293 cells
# T1 sequence (P08138 29-427): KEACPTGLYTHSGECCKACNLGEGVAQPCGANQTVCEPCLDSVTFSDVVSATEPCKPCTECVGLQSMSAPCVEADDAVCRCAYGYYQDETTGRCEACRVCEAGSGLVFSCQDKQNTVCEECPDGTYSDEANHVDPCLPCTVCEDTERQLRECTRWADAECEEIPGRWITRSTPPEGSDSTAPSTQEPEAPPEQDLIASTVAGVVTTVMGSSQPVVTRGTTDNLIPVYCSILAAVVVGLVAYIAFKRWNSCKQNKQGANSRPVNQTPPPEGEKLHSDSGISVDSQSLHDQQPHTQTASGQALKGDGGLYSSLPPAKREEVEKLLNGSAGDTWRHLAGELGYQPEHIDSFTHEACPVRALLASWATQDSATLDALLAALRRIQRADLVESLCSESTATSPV
# Protocol: as §1
# Study of the Dimerization of the p75^NTR Receptor Independently of its Ligand
# The study of the dimerization of the p75^NTR receptor is performed on a cell suspension of the strain SK-N-BE Bep 75. The cells (2.5×10^4 cells/well) are placed in wells (96-well plate) for 24 hours, and then preincubated for 1 hour at 37° C. in the presence or absence of the compounds according to the invention. Supernatent, obtained from a culture of human cells of HEK293 renal origin expressing, after 48 hours of transfection, and secreting a soluble form of the p75^NTR receptor (extracellular part of the receptor) coupled to an alkaline phosphatase, the latter at a final concentration of 10 nM, is then added. The quantification of the specific binding of the soluble receptor to the receptor present on SK-N-BE Bep 75 cells is determined by measuring the enzyme activity of the alkaline phosphatase after incubation of the cells for 1 hour at 37° C. in the presence of the supernatant. After filtering and transferring the filters into 24-well plates, the alkaline phosphatase activity is determined by adding CDP-Star chemoluminescent substrate (ready-to-use, Roche).
IC50 (p75^NTR receptor) [nM],melting point [°C],Compound,IC50 [1] [nM]
1.09,–,"C[C@@H]1CN(c2ccc(C(F)(F)F)cn2)[C@@H](C)CN1CC(=O)N1CC=C(c2cccc3ccoc23)CC1 [Compound 14, 1-(4-benzofuran-7-yl-3,6-dihydro-2H-pyridin-1-yl)-2-[(2R,5S)-2,5-dimethyl-4-(5-trifluoromethylpyridin-2-yl)piperazin-1-yl]ethanone]",1.33
–,–,"C[C@@H]1CN(c2ccc3ccccc3n2)C[C@H](C)N1CC(=O)N1CC=C(c2cccc3ccsc23)CC1 [Compound 19, 1-(4-benzo[b]thiophen-7-yl-3,6-dihydro-2H-pyridin-1-yl)-2-((2S,6R)-2,6-dimethyl-4-quinolin-2-ylpiperazin-1-yl)ethanone]",1.07
0.94,138 to 139,"C[C@@H]1CN(c2ccc(C(F)(F)F)cn2)C[C@H](C)N1CC(=O)N1CC=C(c2cccc3ccoc23)CC1 [Compound 34, 1-(4-benzofuran-7-yl-3,6-dihydro-2H-pyridin-1-yl)-2-[(2S,6R)-2,6-dimethyl-4-(5-trifluoromethylpyridin-2-yl)piperazin-1-yl]ethanone]",3.39
